Assay results: PubChem BioAssay (NCI)
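Compound exposure: 48 hours, 5 concentrations, 96-well plates. TGI: concentration producing complete growth inhibition.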

Tests used:
Experiment in all cases: DTP human tumour cell line panel, 48 h
HS 578T breast = tested on: HS 578T breast
SN12C renal = tested on: SN12C renal
HOP-92 NSCLC = tested on: HOP-92 NSCLC
HCC-2998 colon = tested on: HCC-2998 colon
UACC-257 melanoma = tested on: UACC-257 melanoma
K-562 leukemia = tested on: K-562 leukemia
UACC-62 melanoma = tested on: UACC-62 melanoma
HCT-15 colon = tested on: HCT-15 colon
HOP-62 NSCLC = tested on: HOP-62 NSCLC
NCI-H23 lung = tested on: NCI-H23 lung
OVCAR-8 ovarian = tested on: OVCAR-8 ovarian
SR leukemia = tested on: SR leukemia
MCF7 breast = tested on: MCF7 breast
SF-268 CNS = tested on: SF-268 CNS
MOLT-4 leukemia = tested on: MOLT-4 leukemia
MDA-MB-435 = tested on: MDA-MB-435
NCI/ADR-RES ovarian = tested on: NCI/ADR-RES ovarian
IGROV1 ovarian = tested on: IGROV1 ovarian
HL-60(TB) leukemia = tested on: HL-60(TB) leukemia
OVCAR-5 ovarian = tested on: OVCAR-5 ovarian
MDA-N = tested on: MDA-N
A498 renal = tested on: A498 renal
BT-549 breast = tested on: BT-549 breast
MALME-3M melanoma = tested on: MALME-3M melanoma
HT29 colon = tested on: HT29 colon
TK-10 renal = tested on: TK-10 renal
SF-539 CNS = tested on: SF-539 CNS
SW-620 colon = tested on: SW-620 colon
KM12 colon = tested on: KM12 colon
NCI-H226 lung = tested on: NCI-H226 lung
CAKI-1 renal = tested on: CAKI-1 renal
SK-MEL-28 melanoma = tested on: SK-MEL-28 melanoma
LOX IMVI melanoma = tested on: LOX IMVI melanoma
RXF 393 renal = tested on: RXF 393 renal
T-47D breast = tested on: T-47D breast
NCI-H522 lung = tested on: NCI-H522 lung
A549 NSCLC = tested on: A549 NSCLC
PC-3 prostate = tested on: PC-3 prostate
HCT-116 colon = tested on: HCT-116 colon
SNB-19 CNS = tested on: SNB-19 CNS
SK-MEL-5 melanoma = tested on: SK-MEL-5 melanoma
NCI-H460 lung = tested on: NCI-H460 lung
CCRF-CEM leukemia = tested on: CCRF-CEM leukemia
EKVX NSCLC = tested on: EKVX NSCLC
COLO 205 colon = tested on: COLO 205 colon
M14 melanoma = tested on: M14 melanoma
ACHN renal = tested on: ACHN renal
SF-295 CNS = tested on: SF-295 CNS
OVCAR-3 ovarian = tested on: OVCAR-3 ovarian
U251 CNS = tested on: U251 CNS
OVCAR-4 ovarian = tested on: OVCAR-4 ovarian
786-0 renal = tested on: 786-0 renal
DU-145 prostate = tested on: DU-145 prostate
SNB-75 CNS = tested on: SNB-75 CNS
UO-31 renal = tested on: UO-31 renal
RPMI-8226 leukemia = tested on: RPMI-8226 leukemia

Measured: TGI

Cc1ccc(C)c2c1C/C(=C\c1ccccc1C(=O)O)C2=O
97.7 µM: SF-539 CNS
80.5 µM: NCI-H226 lung
> 100 µM: all other assays above
